Measured values: US20220160714A1, “METHODS FOR TREATING COLORECTAL CANCER” (ICAHN SCHOOL OF MEDICINE AT MOUNT SINAI, priority 2019, published 2022)
Values joined by “and” are separate entries in the source; they are usually repeats but may differ in a detail not shown here. Identical values can stand only once.

Test system: patient's personalized Drosophila model 006.1
Assay: Trametinib combination drug screen (Table 4B, experimental pupae numbers)
Type: in vivo
Procedure: After food was solidified, a mixture of experimental and control embryos (at a 1:2 ratio based on expected Mendelian ratios) were aliquoted into each drug/food tube (15 μl/tube). […] Embryos for drug screening were generated from the following cross in cages: w/Y; UAS-006.1; UAS ago^RNAi UAS-apc^RNAi/Stub-gal80-T Xw UAS-dicer2; +; byn-gal4 UAS-GFP tub-gal80^ts/TM6, Hu, Tb. Embryos were obtained from each cage for 4-5 consecutive days by providing daily a fresh apple juice plate with yeast paste. Egg lays were performed at 22° C. to minimize transgene expression during embryogenesis to prevent embryonic defects or lethality that could not potentially be rescued by drug feeding. After embryos were aliquoted, drug tubes were transferred to 25° C. to induce transgene expression. After 2 weeks, the number of surviving experimental pupae (EP) were counted in each tube.
DMSO and Trametinib alone served as controls. […] Statistical analysis was performed as described above.

[1] = drug screened in combination with trametinib
[2] = drug screened in combination with trametinib, mean of 8 replicates

Structure (SMILES) | EP (raw experimental pupae numbers), replicate 1 [1] | EP (raw experimental pupae numbers), replicate 2 [1] | EP (raw experimental pupae numbers), replicate 3 [1] | EP (raw experimental pupae numbers), replicate 4 [1] | EP (raw experimental pupae numbers), replicate 5 [1] | EP (raw experimental pupae numbers), replicate 6 [1] | EP (raw experimental pupae numbers), replicate 7 [1] | EP (raw experimental pupae numbers), replicate 8 [1] | EP mean [2] | EP mean (in vivo) | EP (raw experimental pupae numbers), replicate 1 (trametinib alone) | EP (raw experimental pupae numbers), replicate 2 (trametinib alone) | EP (raw experimental pupae numbers), replicate 3 (trametinib alone) | EP (raw experimental pupae numbers), replicate 4 (trametinib alone) | EP (raw experimental pupae numbers), replicate 5 (trametinib alone) | EP (raw experimental pupae numbers), replicate 6 (trametinib alone) | EP (raw experimental pupae numbers), replicate 7 (trametinib alone) | EP (raw experimental pupae numbers), replicate 8 (trametinib alone)
CCC(=O)O[C@]1(C(=O)SCF)[C@H](C)C[C@H]2[C@@H]3C[C@H](F)C4=CC(=O)C=C[C@]4(C)[C@@]3(F)[C@@H](O)C[C@@]21C [Fluticasone propionate] | 0 | 0 | 1 | 0 | 2 | 0 | 0 | 1 | 0.5 |  |  |  |  |  |  |  |  | 
C=CC[C@@H]1/C=C(\C)C[C@H](C)C[C@H](OC)[C@H]2O[C@@](O)(C(=O)C(=O)N3CCCC[C@H]3C(=O)O[C@H](/C(C)=C/[C@@H]3CC[C@@H](O)[C@H](OC)C3)[C@H](C)[C@@H](O)CC1=O)[C@H](C)C[C@@H]2OC [Tacrolimus] | 0 | 0 | 0 | 3 | 0 | 1 | 2 | 0 | 0.75 |  |  |  |  |  |  |  |  | 
CC(=O)Nc1cccc(-n2c(=O)n(C3CC3)c(=O)c3c(Nc4ccc(I)cc4F)n(C)c(=O)c(C)c32)c1 [Trametinib alone] |  |  |  |  |  |  |  |  |  | 0.2917 | 0 (2×) and 1 | 0 (2×) and 1 | 0 | 0 (2×) and 1 | 1 (2×) and 0 | 1 (2×) and 0 | 0 | 0
C[C@@H](c1ncncc1F)[C@](O)(Cn1cncn1)c1ccc(F)cc1F [Voriconazole] | 0 | 0 | 0 | 1 | 2 | 1 | 0 | 1 | 0.625 |  |  |  |  |  |  |  |  | 
Cc1cnc(C(=O)O)c[n+]1[O-] [acipimox] | 0 | 1 | 0 | 1 | 1 | 1 | 0 | 4 | 1 |  |  |  |  |  |  |  |  | 
NCCCNCCSP(=O)(O)O [amifostine] | 1 | 1 | 1 | 0 | 1 | 6 | 0 | 0 | 1.25 |  |  |  |  |  |  |  |  | 
CCOC(=O)C1=C(COCCN)NC(C)=C(C(=O)OC)C1c1ccccc1Cl (centres unmarked) [amlodipine besylate] | 0 | 0 | 0 | 1 | 1 | 0 | 0 | 0 |  |  |  |  |  |  |  |  |  | 
CCOc1cc([C@@H](CS(C)(=O)=O)N2C(=O)c3cccc(NC(C)=O)c3C2=O)ccc1OC [apremilast] | 0 | 0 | 2 | 0 | 3 | 0 | 0 | 0 | 0.625 |  |  |  |  |  |  |  |  | 
